Source: patent US20240041386A1, “MICROCHIP BASED RECORDING OF NEUROVASCULAR ACTIVITY AND BEHAVIOR” (NEUREFLECT, INC., priority 2021, published 2024)

Tested on: cortical spreading depression (CSD)
Test: Optically triggered cortical spreading depression (CSD) threshold in mice with skull-attached microchip
Type: in vivo
Settings: Thy1/ChR2 mice under isoflurane anesthesia, compared with the wake state; data not shown
Method: Cortical spreading depression (CSD) in freely behaving mice was triggered optically by administering sequential pulses of light with increasing duration until CSD was observed based on OIS. After each light pulse, OIS was monitored for at least 10 minutes for the occurrence of CSD. If CSD occurred, no further stimulus pulses were delivered, whereas if no CSD occurred, then the duration was increased with the subsequent pulse. To trigger CSD under anesthesia, the cage that the animal was housed in was rapidly flushed with 2% isoflurane in a 20/80% O2/N2 gas mixture. After the animal lost consciousness, the isoflurane was reduced to 1.5% to sustain anesthesia. For prolonged experiments a heating pad set at 37° C. was placed under the cage and a small paper blanket was placed over the animal to maintain its core temperature. Breathing pattern and paw color were continuously monitored. Anesthesia was maintained until CBV returned to baseline levels at the end of the CSD. […] After each light pulse, OIS was monitored for a t least 10 minutes for a CSD, If CSD occurred, no further pulses were delivered. If a baseline threshold was well determined, stimulations were started 3-4 steps before that baseline for subsequent CSDs. […] These measurements illustrate that threshold for optically triggering CSD can be quantified based upon the duration of light stimulation required to evoke CSD. […]

`FC(F)OC(Cl)C(F)(F)F` (stereo not shown) [isoflurane] was tested. Which “threshold for triggering CSD (duration of blue light stimulation required to evoke CSD)” value did it give?
The value was “significantly lower than in the wake state”.
